Assays:
[1] = Final pediatric population PK model; format: in vivo, human
[2] = Observed C24 in P1093; format: in vivo; details: human, plasma, oral, Geometric mean C24, P1093, ≥ 6 to < 10 kg
[3] = maturation half-time, fixed; based on paracetamol; ref Anderson et al.; cited from earlier work
[4] = healthy adult volunteers, same dose; cited from earlier work
[5] = final PopPK model, reference 70-kg subject

V/F~WT ([1]; effect of weight on V/F (exponent)): 0.556 | KA~DT and granules ([1]; final PopPK model, factor on KA of FCT): 2.04 | KA, FCT ([1]; final PopPK model, film-coated tablet): 0.854 h^–1 | CL/F [1, 5]: 1.03 L/h | V/F [1, 5]: 13.6 L | ω^2CL point estimate ([1]; inter-individual variability of CL/F, variance): 0.0863 | ω^2KA point estimate ([1]; inter-individual variability of KA, variance): 0.762 | ω^2V point estimate ([1]; inter-individual variability of V/F, variance): 0.0698 | ω^2IOV,KA point estimate ([1]; inter-occasion variability of KA, variance): 0.610 | F, fasted DT/granules ([1]; relative bioavailability): 1.53 | F, without regard to food, FCT ([1]; relative bioavailability): 1.10 | F, fasted FCT ([1]; relative bioavailability, reference, fixed): 1.00 | concentration at 24 h ([2]; 10 mg, < 6 months of age, DT 10 mg QD): 1820 ng/mL | concentration at 24 h ([2]; 10 mg, ≥ 6 months of age, DT 10 mg QD): 735 ng/mL | concentration at 24 h ([2]; 15 mg, ≥ 6 months of age, DT 15 mg QD): 908 ng/mL
Structure (SMILES): C[C@@H]1CCO[C@H]2Cn3cc(C(=O)NCc4ccc(F)cc4F)c(=O)c(O)c3C(=O)N12 [dolutegravir, Dolutegravir]
KA (DT and granules) ([1]; calculated as 0.854 × 2.04): KA (DT and granules) = 1.74 (95% CI 1.20–2.28), calculated as 0.854 × 2.04 (95% CI 0.854 × 1.41–0.854 × 2.67) | TM50 [3]: 52.2 FIX week | Relative bioavailability of DT vs granules [4]: comparable

Reference: PMC10520196 (Clinical Pharmacokinetics, 2023)
